Data: US12714106B2 (Bayer Aktiengesellschaft, priority 2020, dated 2026)

Experiments:
Format in all cases: in vivo
[1] = system: LOLRI - sensitive (Lolium rigidum); experiment: Post-emergence greenhouse herbicide test, visual rating; conditions: for LOLRI Expected: Colby formula; for LOLRI Synergism: observed minus expected; for LOLRI Observed: post-emergence, 21 days after application
Description: (§1) Seeds of grass and broadleaf weeds were sown in pots (diameter: 7 cm) filled with a sandy loam soil. Following germination the plants were grown under optimal conditions up to a growth stage of BBCH 11 to 14 depending on species.
(§2) The applications were performed by post emergence treatments on the planted pots using a spray volume of 300 L water per hectare. The herbicides were applied alone and in combination as described.
(§3) The trial was conducted in the greenhouse ensuring optimal growing conditions.
(§4) The herbicidal effects were assessed 21 days following application by visual ratings comparing treated and untreated plants (0%=no effect to 100%=complete die-off).
(§5) The compounds of the formula (Ia), (Ib) and (I) were formulated as WP (wettable powder) formulation.
(§6) • BBCH=the BBCH code provides information about the morphological development stage of a plant. Officially, the abbreviation denotes the Biologische Bundesanstalt, Bundessortenamt and Chemische Industrie [Federal Biological Institute for Agriculture and Forestry, Federal Office for Crop Plant Varieties and Chemical Industry]. The range of BBCH 00-10 denotes the germination stages of the seeds until surface penetration. The range of BBCH 11-25 denotes the leaf development stages until stocking (corresponding to the number of tillers or side-shoots). In the Trials, the Following Biotypes of Broad-Leaved Weeds and Weed Grasses were Used: • ALOMY—sensitive (Alopecurus myosuroides) sensitive to customary herbicidally active compounds. • ALOMY_R (resistant) (Alopecurus myosuroides) resistant to herbicidally active compounds of the HRAC groups A and B; population mixture of field origin having increased metabolic resistance (IMR) and some target site resistance (TSR). • LOLRI—sensitive (Lolium rigidum) sensitive to customary herbicidally active compounds. • LOLRI_R (resistant) (Lolium rigidum) resistant to herbicidally active compounds of the HRAC groups A and B; population mixture of field origin having increased metabolic resistance (IMR) and some target site resistance (TSR). • AMAPA_R (resistant) (Amaranthus palmeri) resistant to herbicidally active compounds of the HRAC groups A and B; population mixture of field origin having increased metabolic resistance (IMR) and some target site resistance (TSR). • CHRVI (Chloris virgate) feather finger grass • KCHSC (Kochia scoparia) Mexican burning bush • MATIN (Matricaria inodora) false chamomile • POLCO (Polygonum convolvulus) black knotweed • ABUTH (Abutilon theophrasti) china jute • AMAPA (Amaranthus palmeri) palmer amaranth • BIDPI (Bidens pilosa) common blackjack • CHEAL (Chenopodium album) common lambsquarters • EPHHL (Euphorbia heterophylla) wild spurge • XANST (Xanthium strumarium) large cocklebur • EMEAU (Emex australis)—Cathead • GALAP (Gallium aparine)—Cleaver
(§7) The synergistic herbicidal activity was calculated using Colby's formula (cf. S. R. Colby; Weeds 15 (1967), 20-22): […]

[2] = system: POLCO (Polygonum convolvulus); experiment: as above; conditions: 12.5 g/ha
Description: as §1, §2, §3, §4, §5, §6, §7

[3] = system: LOLRI_R (resistant) (Lolium rigidum); experiment: as above; conditions: for LOLRI_R Expected: Colby formula; for LOLRI_R Synergism: observed minus expected; for LOLRI_R Observed: post-emergence, 21 days after application
Description: as §1, §2, §3, §4, §5, §6, §7

BID PI (Bidens pilosa) = experiment: as above; conditions: 25 g/ha (Ia) + 25 g/ha (Ib)
Description: as §1, §2, §3, §4, §5, §6, §7

[4] = system: ABUTH (Abutilon theophrasti); experiment: as above; conditions: for ABUTH Expected: Colby formula; for ABUTH synerg.: observed minus expected; for ABUTH Observed: post-emergence, 21 days after application
Description: as §1, §2, §3, §4, §5, §6, §7

[5] = system: AMAPA-R (resistant) (Amaranthus palmeri); experiment: as above; conditions: 25 g/ha (Ia) + 25 g/ha (Ib)
Description: as §1, §2, §3, §4, §5, §6, §7

[6] = system: CHEAL (Chenopodium album); experiment: as above; conditions: 25 g/ha (Ia) + 25 g/ha (Ib)
Description: as §1, §2, §3, §4, §5, §6, §7

KCHSC (Kochia scoparia) = experiment: as above; conditions: 12.5 g/ha
Description: as §1, §2, §3, §4, §5, §6, §7

EMEAU (Emex australis) = experiment: as above; conditions: 12.5 g/ha (row as printed)
Description: as §1, §2, §3, §4, §5, §6, §7

GALAP (Gallium aparine) = experiment: as above; conditions: 50 g/ha
Description: as §1, §2, §3, §4, §5, §6, §7

[7] = system: MATIN (Matricaria inodora); experiment: as above; conditions: for MATIN Expected: Colby formula; for MATIN Synergism: observed minus expected; for MATIN Observed: post-emergence, 21 days after application
Description: as §1, §2, §3, §4, §5, §6, §7

[8] = system: XANST (Xanthium strumarium); experiment: as above; conditions: for XANST Expected: Colby formula; for XANST synerg.: observed minus expected; for XANST Observed: post-emergence, 21 days after application
Description: as §1, §2, §3, §4, §5, §6, §7

[9] = system: EPHHL (Euphorbia heterophylla); experiment: as above; conditions: for EPHHL Expected: Colby formula; for EPHHL synerg.: observed minus expected; for EPHHL Observed: post-emergence, 21 days after application
Description: as §1, §2, §3, §4, §5, §6, §7

CHRVI (Chloris virgate) = experiment: as above; conditions: 12.5 g/ha
Description: as §1, §2, §3, §4, §5, §6, §7

[10] = system: grass and broadleaf weeds; experiment: Comparative testing of crystalline (I), (Ia), (Ib), summary of tables 3 to 6; conditions: see tables 3 to 6
Description: as §1, §2, §3, §4, §5, §7

[11] = post-emergence, 21 days after application

C=C[C@]1(C(=O)N[C@H]2CO[C@@H](C(=O)OC)C2)CC(c2cc(F)cc(F)c2)=NO1 (relative stereo) [(I), methyl(2R*,4R*)-4-[[(5S)-3-(3,5-difluorophenyl)-5-vinyl-4H-isoxazole-5-carbonyl]amino]tetrahydrofuran-2-carboxylate]
LOLRI Expected ([1]; 6.25 g/ha): 20% | LOLRI Synergism ([1]; 6.25 g/ha): 55% | LOLRI Observed ([1]; 6.25 g/ha): 75% | LOLRI Expected ([1]; 12.5 g/ha): 90% | LOLRI Synergism ([1]; 12.5 g/ha): 5% | LOLRI Observed ([1]; 12.5 g/ha): 95% | POLCO Expected ([2]; Colby formula): 91% | POLCO Synergism ([2]; observed minus expected): 4% | POLCO Observed [2, 11]: 95% | LOLRI_R Expected ([3]; 6.25 g/ha): 15% | LOLRI_R Synergism ([3]; 6.25 g/ha): 15% | LOLRI_R Observed ([3]; 6.25 g/ha): 30% | LOLRI_R Expected ([3]; 12.5 g/ha): 20% | LOLRI_R Synergism ([3]; 12.5 g/ha): 20% | LOLRI_R Observed ([3]; 12.5 g/ha): 40% | LOLRI_R Expected ([3]; 25 g/ha): 30% | LOLRI_R Synergism ([3]; 25 g/ha): 10% | LOLRI_R Observed ([3]; 25 g/ha): 40% | BID PI Expected (BID PI (Bidens pilosa); Colby formula): 37% | BID PI synerg. (BID PI (Bidens pilosa); observed minus expected): 28% | BID PI Observed (BID PI (Bidens pilosa); [11]): 65% | ABUTH Expected ([4]; 25 g/ha (Ia) + 25 g/ha (Ib)): 51% | ABUTH synerg. ([4]; 25 g/ha (Ia) + 25 g/ha (Ib)): 25% | ABUTH Observed ([4]; 25 g/ha (Ia) + 25 g/ha (Ib)): 75% | ABUTH Expected ([4]; 50 g/ha (Ia) + 50 g/ha (Ib)): 68% | ABUTH synerg. ([4]; 50 g/ha (Ia) + 50 g/ha (Ib)): 7% | ABUTH Observed ([4]; 50 g/ha (Ia) + 50 g/ha (Ib)): 75% | AMAPA-R Expected ([5]; Colby formula): 51% | AMAPA-R synerg. ([5]; observed minus expected): 14% | AMAPA-R Observed [5, 11]: 65% | CHEAL Expected ([6]; Colby formula): 76% | CHEAL synerg. ([6]; observed minus expected): 19% | CHEAL Observed [6, 11]: 95% | KCHSC Expected (KCHSC (Kochia scoparia); Colby formula): 82% | KCHSC Synergism (KCHSC (Kochia scoparia); observed minus expected): 13% | KCHSC Observed (KCHSC (Kochia scoparia); [11]): 95% | EMEAU Expected (EMEAU (Emex australis); Colby formula): 89% | EMEAU Synergism (EMEAU (Emex australis); observed minus expected): 8% | EMEAU Observed (EMEAU (Emex australis); [11]): 97% | GALAP Expected (GALAP (Gallium aparine); Colby formula): 84% | GALAP Synergism (GALAP (Gallium aparine); observed minus expected): 6% | GALAP Observed (GALAP (Gallium aparine); [11]): 90% | MATIN Expected ([7]; 12.5 g/ha): 0% | MATIN Synergism ([7]; 12.5 g/ha): 15% | MATIN Observed ([7]; 12.5 g/ha): 15% | MATIN Expected ([7]; 25 g/ha): 0% | MATIN Synergism ([7]; 25 g/ha): 15% | MATIN Observed ([7]; 25 g/ha): 15% | MATIN Expected ([7]; 50 g/ha): 0% | MATIN Synergism ([7]; 50 g/ha): 20% | MATIN Observed ([7]; 50 g/ha): 20% | XANST Expected ([8]; 25 g/ha (Ia) + 25 g/ha (Ib)): 0% | XANST synerg. ([8]; 25 g/ha (Ia) + 25 g/ha (Ib)): 35% | XANST Observed ([8]; 25 g/ha (Ia) + 25 g/ha (Ib)): 35% | XANST Expected ([8]; 50 g/ha (Ia) + 50 g/ha (Ib)): 28% | XANST synerg. ([8]; 50 g/ha (Ia) + 50 g/ha (Ib)): 7% | XANST Observed ([8]; 50 g/ha (Ia) + 50 g/ha (Ib)): 35% | XANST Expected ([8]; 100 g/ha (Ia) + 100 g/ha (Ib)): 36% | XANST synerg. ([8]; 100 g/ha (Ia) + 100 g/ha (Ib)): 29% | XANST Observed ([8]; 100 g/ha (Ia) + 100 g/ha (Ib)): 65% | EPHHL Expected ([9]; 25 g/ha (Ia) + 25 g/ha (Ib)): 55% | EPHHL synerg. ([9]; 25 g/ha (Ia) + 25 g/ha (Ib)): 11% | EPHHL Observed ([9]; 25 g/ha (Ia) + 25 g/ha (Ib)): 65% | EPHHL Expected ([9]; 50 g/ha (Ia) + 50 g/ha (Ib)): 58% | EPHHL synerg. ([9]; 50 g/ha (Ia) + 50 g/ha (Ib)): 12% | EPHHL Observed ([9]; 50 g/ha (Ia) + 50 g/ha (Ib)): 70% | CHRVI Expected (CHRVI (Chloris virgate); Colby formula): 48% | CHRVI Synergism (CHRVI (Chloris virgate); observed minus expected): 47% | CHRVI Observed (CHRVI (Chloris virgate); [11]): 95% | herbicidal activity compared with the other crystalline forms ([10]; (I) vs (Ia), (Ia) vs (Ib)): superior in herbicidal activity | synergistic effect of the physical mixture of (Ia) and (Ib) [10]: synergistic effect
